target: T1, hTRPM8 (Homo sapiens, UniProt Q7Z2W7); assay: Assay on TRPM8 modulators: calcium imaging (Fluo-4, Flexstation) in HEK293 cell line stably expressing hTRPM8; assay type: cell-based; conditions: HEK293 cells stably expressing hTRPM8; calcium influx, Fluo-4, Flexstation 3; sigmoidal dose-response fit
T1 construct: expressed in transfected cells
Experimental: A HEK293 cell line stably expressing hTRPM8 was generated according to Klein of at, (Chem. Senses 36: […], 2011) and receptor activation was monitored by calcium imaging in a Flexstation. For Ca-imaging assays of TRPM8 channel activation, cells were seeded on day 0 at a density of 12000 cells per well in Dulbecco's modified Eagle medium (DMEM) containing 9% foetal bovine serum in black, clear bottom 96-well plates that had been coated with 0.001% polyethyleneimine (molecular weight=60 000, Acros Organics). On day 2, agonists were evaluated via calcium imaging using Fluo-4. Briefly, growth medium was discarded, and the cells were incubated in the dark for 1 h at 37° C. in 50 μL loading buffer consisting of 2.7 μM Fluo-4 AM (Invitrogen) and […] probenecid (Sigma-Aldrich) in DMEM (without serum). After incubation, the plates were washed five times with 100 μL of assay buffer (in mM: 130 NaCl, 5 KCl, 10 HEPES, 2 CaCl2, and 10 glucose, pH7.4.) and further incubated in the dark at room temperature for 30 min. The cells were then washed five times with 100 μL assay buffer and then calcium influx to serial dilutions of inventive compounds were measured in a Flexstation 3 (Molecular Devices). Receptor activation was initiated following addition of 20 μl of a 10-fold concentrated ligand stock solution, which is also prepared in assay buffer. Fluorescence was continuously monitored for 15 seconds prior to ligand addition and for 105 seconds after ligand addition, for a total of 120 seconds. Maximal receptor activation in relation to solvent control and relative to 31.6 μM menthol is determined. Data from serial dilutions were processed with a KNIME workflow to fit a sigmoidal dose-response curve and to extrapolate […].

T1 sequence (Q7Z2W7 whole entry): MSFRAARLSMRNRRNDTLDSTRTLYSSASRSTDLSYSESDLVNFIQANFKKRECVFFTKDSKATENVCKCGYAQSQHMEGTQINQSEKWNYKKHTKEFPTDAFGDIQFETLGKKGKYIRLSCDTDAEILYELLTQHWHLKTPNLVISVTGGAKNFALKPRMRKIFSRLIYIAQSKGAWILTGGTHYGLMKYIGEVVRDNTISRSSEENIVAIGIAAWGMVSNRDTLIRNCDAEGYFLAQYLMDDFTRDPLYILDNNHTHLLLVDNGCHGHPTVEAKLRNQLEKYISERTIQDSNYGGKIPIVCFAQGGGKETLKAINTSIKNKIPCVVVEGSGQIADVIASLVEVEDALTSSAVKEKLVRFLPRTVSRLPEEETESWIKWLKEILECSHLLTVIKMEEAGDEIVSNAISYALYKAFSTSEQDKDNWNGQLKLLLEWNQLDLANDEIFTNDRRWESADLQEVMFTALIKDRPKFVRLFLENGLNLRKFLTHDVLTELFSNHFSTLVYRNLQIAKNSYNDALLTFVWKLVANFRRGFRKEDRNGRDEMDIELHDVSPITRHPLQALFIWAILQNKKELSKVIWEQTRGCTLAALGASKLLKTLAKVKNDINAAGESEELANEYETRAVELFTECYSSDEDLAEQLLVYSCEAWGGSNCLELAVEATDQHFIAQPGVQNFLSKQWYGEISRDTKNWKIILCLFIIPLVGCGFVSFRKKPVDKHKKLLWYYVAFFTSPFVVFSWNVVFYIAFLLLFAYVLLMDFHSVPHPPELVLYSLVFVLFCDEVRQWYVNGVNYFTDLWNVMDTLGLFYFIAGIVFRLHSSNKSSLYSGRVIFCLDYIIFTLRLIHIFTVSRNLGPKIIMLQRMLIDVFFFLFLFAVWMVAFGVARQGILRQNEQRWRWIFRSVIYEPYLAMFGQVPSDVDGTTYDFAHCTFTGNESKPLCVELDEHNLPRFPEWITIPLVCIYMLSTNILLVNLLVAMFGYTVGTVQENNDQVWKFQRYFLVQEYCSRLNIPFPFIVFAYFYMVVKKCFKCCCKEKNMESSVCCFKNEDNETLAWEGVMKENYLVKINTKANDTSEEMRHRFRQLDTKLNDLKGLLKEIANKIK

Row | SMILES | EC50
1 | CO[C@@H]1C[C@H]1C(=O)N1CCCCC1c1nc(-c2ccccc2)c[nH]1 (relative stereo) [Compound 5, (trans-2-methoxycyclopropyl)(2-(4-phenyl-1H-imidazol-2-yl)piperidin-1-yl)methanone] | 1000 to 35000 nM
2 | N#C[C@@H]1C[C@@H]1C(=O)N1CCCCC1c1nc(-c2ccccc2)c[nH]1 (relative stereo) [Compound 90, cis-2-(2-(4-phenyl-1H-imidazol-2-yl)piperidine-1-carbonyl)cyclopropane-1-carbonitrile] | 1000 to 35000 nM
3 | O=C(c1cnns1)N1CCCCC1c1nc(-c2ccccc2)c[nH]1 (stereo not shown) [Compound 1, (2-(4-phenyl-1H-imidazol-2-y)piperidin-1-yl)(1,2,3-thiadiazol-5-yl)methanone] | 1000 to 35000 nM
4 | O=C(C1CSC1)N1CCCCC1c1nc(-c2ccccc2)c[nH]1 (stereo not shown) [Compound 2, (2-(4-phenyl-1H-imidazol-2-yl)piperidin-1-yl)(thietan-3-yl)methanone] | 300 to 1000 nM
5 | CC1(C)CC1C(=O)N1CCCCC1c1nc(-c2ccccc2)c[nH]1 (stereo not shown) [Compound 3, (2,2-dimethylcyclopropyl)(2-(4-phenyl-1H-imidazol-2-yl)piperidin-1-yl)methanone] | < 50 nM
6 | CCOC1CC1C(=O)N1CCCCC1c1nc(-c2ccccc2)c[nH]1 (stereo not shown) [Compound 4, (2-ethoxycyclopropyl)(2-(4-phenyl-1H-imidazol-2-yl)piperidin-1-yl)methanone] | 300 to 1000 nM
7 | CC1CC1C(=O)N1CCCCC1c1nc(-c2ccccc2)c[nH]1 (stereo not shown) [Compound 6, (2-methylcyclopropyl)(2-(4-phenyl-1H-imidazol-2-yl)piperidin-1-yl)methanone] | 50 to 300 nM
8 | CC1CC(C(=O)N2CCCCC2c2nc(-c3ccccc3)c[nH]2)CO1 (stereo not shown) [Compound 7, (5-methyltetrahydrofuran-3-yl)(2-(4-phenyl-1H-imidazol-2-yl)piperidin-1-yl)methanone] | 1000 to 35000 nM
9 | C/C=C(\C)C(=O)N1CCCCC1c1ncc(-c2ccc(F)c(F)c2)[nH]1 (stereo not shown) [Compound 8, (E)-1-(2-(5-(3,4-difluorophenyl)-1H-imidazol-2-yl)piperidin-1-yl)-2-methylbut-2-en-1-one] | 50 to 300 nM
10 | C/C=C(\C)C(=O)N1CCCCC1c1ncc(-c2ccc(C)cc2)[nH]1 (stereo not shown) [Compound 9, (E)-2-methyl-1-(2-(5-(p-tolyl)-1H-imidazol-2-yl)piperidin-1-yl)but-2-en-1-one] | < 50 nM
11 | C/C=C/C(C)C(=O)N1CCCCC1c1ncc(-c2ccc(C)cc2)[nH]1 (stereo not shown) [Compound 10, (E)-2-methyl-1-(2-(5-(p-tolyl)-1H-imidazol-2-yl)piperidin-1-yl)pent-3-en-1-one] | < 50 nM
12 | CS[C@@H](C)C(=O)N1CCCC[C@@H]1c1ncc(-c2ccc(C)cc2)[nH]1 [Compound 12, (S)-2-(methylthio)-1-((R)-2-(5-(p-tolyl)-1H-imidazol-2-yl)piperidin-1-yl)propan-1-one] | < 50 nM
13 | CS[C@@H](C)C(=O)N1CCCC[C@H]1c1ncc(-c2ccc(C)cc2)[nH]1 [Compound 13, (S)-2-(methylthio)-1-((S)-2-(5-(p-tolyl)-1H-imidazol-2-yl)piperidin-1-yl)propan-1-one] | 50 to 300 nM
14 | Cc1ccc(-c2cnc(C3CCCCN3C(=O)C3CCOC3)[nH]2)cc1 (stereo not shown) [Compound 14, (tetrahydrofuran-3-yl)(2-(5-(p-toly)-1H-imidazol-2-yl)piperidin-1-yl)methanone] | 300 to 1000 nM
15 | CSC(C)C(=O)N1CCCCC1c1nc2ccccc2[nH]1 (stereo not shown) [Compound 15, 1-(2-(1H-benzo[d]imidazol-2-yl)piperidin-1-yl)-2-(methylthio)propan-1-one] | 1000 to 35000 nM
16 | CSC(C)C(=O)N1CCCCC1c1nc(-c2ccc3c(c2)CCO3)c[nH]1 (stereo not shown) [Compound 18, 1-(2-(4-(2,3-dihydrobenzofuran-5-yl)-1H-imidazol-2-yl)piperidin-1-yl)-2-(methylthio)propan-1-one] | < 50 nM
17 | CSC(C)C(=O)N1CCCCC1c1nc(-c2ccc3c(c2)OCC3)c[nH]1 (stereo not shown) [Compound 19, 1-(2-(4-(2,3-dihydrobenzofuran-6-yl)-1H-imidazol-2-yl)piperidin-1-yl)-2-(methylthio)propan-1-one] | < 50 nM
18 | CSC(C)C(=O)N1CCCCC1c1nc(-c2cccc(CN(C)C)c2)c[nH]1 (stereo not shown) [Compound 25, 1-(2-(4-(3-((dimethylamino)methyl)phenyl)-1H-imidazol-2-yl)piperidin-1-yl)-2-(methylthio)propan-1-one] | 300 to 1000 nM
19 | CSC(C)C(=O)N1CCCCC1c1nc(-c2ccc(CN3CCS(=O)(=O)CC3)cc2)c[nH]1 (stereo not shown) [Compound 30, 1-(2-(4-(4-((1,1-dioxidothiomorpholino)methyl)phenyl)-1H-imidazol-2-yl)piperidin-1-yl)-2-(methylthio)propan-1-one] | 1000 to 35000 nM
20 | CSC(C)C(=O)N1CCCCC1c1nc(-c2ccc(S(C)(=O)=O)cc2)c[nH]1 (stereo not shown) [Compound 34, 1-(2-(4-(4-(methylsulfonyl)phenyl)-1H-imidazol-2-yl)piperidin-1-yl)-2-(methylthio)propan-1-one] | 1000 to 35000 nM
21 | CSC(C)C(=O)N1CCCCC1c1nc(-c2ccc(C3CCC3)cc2)c[nH]1 (stereo not shown) [Compound 36, 1-(2-(4-(4-cyclobutylphenyl)-1H-imidazol-2-yl)piperidin-1-yl)-2-(methylthio)propan-1-one] | < 50 nM

Other lines, results leading:

Row | EC50 | SMILES
22 | 300 to 1000 nM | CSC(C)C(=O)N1CCCCC1c1nc(-c2cnn(C)c2)c[nH]1 (stereo not shown) [Compound 16, 1-(2-(4-(1-methyl-1H-pyrazol-4-yl)-1H-imidazol-2-yl)piperidin-1-yl)-2-(methylthio)propan-1-one]
23 | < 50 nM | CSC(C)C(=O)N1CCCCC1c1nc(-c2ccc3c(c2)OC(F)(F)O3)c[nH]1 (stereo not shown) [Compound 17, 1-(2-(4-(2,2-difluorobenzo[d][1,3]dioxol-5-yl)-1H-imidazol-2-yl)piperidin-1-yl)-2-(methylthio)propan-1-one]
24 | 300 to 1000 nM | CSC(C)C(=O)N1CCCCC1c1nc(-c2cc(C)ccc2C)c[nH]1 (stereo not shown) [Compound 20, 1-(2-(4-(2,5-dimethylphenyl)-1H-imidazol-2-yl)piperidin-1-yl)-2-(methylthio)propan-1-one]
25 | < 50 nM | CSC(C)C(=O)N1CCCCC1c1nc(-c2ccccc2Cl)c[nH]1 (stereo not shown) [Compound 21, 1-(2-(4-(2-chlorophenyl)-1H-imidazol-2-yl)piperidin-1-yl)-2-(methylthio)propan-1-one]
26 | 50 to 300 nM | CSC(C)C(=O)N1CCCCC1c1nc(-c2cnc(C3CC3)o2)c[nH]1 (stereo not shown) [Compound 22, 1-(2-(4-(2-cyclopropyloxazol-5-yl)-1H-imidazol-2-yl)piperidin-1-yl)-2-(methylthio)propan-1-one]
27 | < 50 nM | CSC(C)C(=O)N1CCCCC1c1nc(-c2ccccc2F)c[nH]1 (stereo not shown) [Compound 23, 1-(2-(4-(2-fluorophenyl)-1H-imidazol-2-yl)piperidin-1-yl)-2-(methylthio)propan-1-one]
28 | 50 to 300 nM | CSC(C)C(=O)N1CCCCC1c1nc(-c2ccccc2O)c[nH]1 (stereo not shown) [Compound 24, 1-(2-(4-(2-hydroxyphenyl)-1H-imidazol-2-yl)piperidin-1-yl)-2-(methylthio)propan-1-one]
29 | < 50 nM | CSC(C)C(=O)N1CCCCC1c1nc(-c2cc(F)cc(F)c2)c[nH]1 (stereo not shown) [Compound 26, 1-(2-(4-(3,5-difluorophenyl)-1H-imidazol-2-yl)piperidin-1-yl)-2-(methylthio)propan-1-one]
30 | 1000 to 35000 nM | CSC(C)C(=O)N1CCCCC1c1nc(-c2c(C)noc2C)c[nH]1 (stereo not shown) [Compound 27, 1-(2-(4-(3,5-dimethylisoxazol-4-yl)-1H-imidazol-2-yl)piperidin-1-yl)-2-(methylthio)propan-1-one]
31 | < 50 nM | CSC(C)C(=O)N1CCCCC1c1nc(-c2ccc(C)c(Cl)c2)c[nH]1 (stereo not shown) [Compound 28, 1-(2-(4-(3-chloro-4-methylphenyl)-1H-imidazol-2-yl)piperidin-1-yl)-2-(methylthio)propan-1-one]
32 | 50 to 300 nM | CSC(C)C(=O)N1CCCCC1c1nc(-c2occc2C)c[nH]1 (stereo not shown) [Compound 29, 1-(2-(4-(3-methylfuran-2-yl)-1H-imidazol-2-yl)piperidin-1-yl)-2-(methylthio)propan-1-one]
33 | 50 to 300 nM | CSC(C)C(=O)N1CCCCC1c1nc(-c2ccc(C(C)O)cc2)c[nH]1 (stereo not shown) [Compound 31, 1-(2-(4-(4-(1-hydroxyethyl)phenyl)-1H-imidazol-2-yl)piperidin-1-yl)-2-(methylthio)propan-1-one]
34 | < 50 nM | CSC(C)C(=O)N1CCCCC1c1nc(-c2ccc(OC(F)F)c(F)c2)c[nH]1 (stereo not shown) [Compound 32, 1-(2-(4-(4-(difluoromethoxy)-3-fluorophenyl)-1H-imidazol-2-yl)piperidin-1-yl)-2-(methylthio)propan-1-one]
35 | 50 to 300 nM | CSC(C)C(=O)N1CCCCC1c1nc(-c2cscc2C(F)F)c[nH]1 (stereo not shown) [Compound 33]
36 | 1000 to 35000 nM | CSC(C)C(=O)N1CCCCC1c1nc(-c2ccc(S(C)(=O)=O)cc2)c[nH]1 (stereo not shown) [Compound 35]
37 | < 50 nM | CSC(C)C(=O)N1CCCCC1c1nc(-c2ccc(C3CC3)cc2F)c[nH]1 (stereo not shown) [Compound 37, 1-(2-(4-(4-cyclopropyl-2-fluorophenyl)-1H-imidazol-2-yl)piperidin-1-yl)-2-(methylthio)propan-1-one]

From US12528801B2 (Givaudan SA, priority 2019, dated 2026)
